Data published in patent US9122153B2, “Cyclic compound, method for producing same, composition, and method for forming resist pattern” (MITSUBISHI GAS CHEMICAL COMPANY, INC., priority 2011, dated 2015).

Assay: Solubility test of compound in safe solvent
Format: physicochemical
Conditions: 23° C., ultrasonic wave 30 minutes, visually evaluated; for CHN (dissolution amount): cyclohexanone; for PGME (dissolution amount): propylene glycol monomethyl ether
Experimental: The compound was precisely weighed in a test tube at 23° C.; and the target solvent was added to the compound so that a predetermined concentration of the liquid to be obtained is set; a ultrasonic wave was applied to the liquid in an ultrasonic washing machine for 30 minutes; and the state of the resulting liquid was visually evaluated.
The solubility of the compound in propylene glycol monomethyl ether (PGME) and cyclohexanone (CHN) was evaluated according to the following standard using the dissolution amount in each solvent. • A: 5.0% by weight≦dissolution amount • B: 3.0% by weight≦dissolution amount<5.0% by weight • C: dissolution amount<3.0% by weight • (2) Resolution, Shape, Roughness (LER), and Sensitivity of Resist Pattern
The dissolution amounts of compounds obtained in the above Synthesis Examples 1 and 2 and Synthesis Comparative Example 1 in propylene glycol monomethyl ether (PGME) and cyclohexanone (CHN) were evaluated using the above evaluation method and standard.

Row | CHN (dissolution amount) | PGME (dissolution amount) | Structure (SMILES)
1 | A (5.0% by weight≦dissolution amount) | A (5.0% by weight≦dissolution amount) | Oc1cc(O)c2cc1C(c1ccc(I)cc1)c1cc(c(O)cc1O)C(c1ccc(I)cc1)c1cc(c(O)cc1O)C(c1ccc(I)cc1)c1cc(c(O)cc1O)C2c1ccc(I)cc1 (stereo not drawn) [CR-1]
2 | A (5.0% by weight≦dissolution amount) | A (5.0% by weight≦dissolution amount) | Oc1cc(O)c2cc1C(c1ccc(CI)cc1)c1cc(c(O)cc1O)C(c1ccc(CI)cc1)c1cc(c(O)cc1O)C(c1ccc(CI)cc1)c1cc(c(O)cc1O)C2c1ccc(CI)cc1 (stereo not drawn) [CR-2]

Row | Structure (SMILES) | CHN (dissolution amount) | PGME (dissolution amount)
3 | Oc1cc(O)c2cc1C(c1ccc(C3CCCCC3)cc1)c1cc(c(O)cc1O)C(c1ccc(C3CCCCC3)cc1)c1cc(c(O)cc1O)C(c1ccc(C3CCCCC3)cc1)c1cc(c(O)cc1O)C2c1ccc(C2CCCCC2)cc1 (stereo not drawn) [CR-1A, reference compound] | C (dissolution amount<3.0% by weight) | B (3.0% by weight≦dissolution amount<5.0% by weight)
